# Source: patent publication US8889826B2, “Peptide antibiotics and methods for making same” (priority 2004, dated 2014)
# What was measured:
# [1] = system: Pseudomonas aeruginosa, ATCC 27853; test: MIC by serial twofold broth dilution, Pseudo; type: cell-based; design: unit not given here; settings: Mueller Hinton broth
# Source text: (§1) The antibacterial activities of certain new compounds are indicated in Table 4 as their minimum inhibitory concentrations (MICs) against Escherichia coli, Staphylococcus aureus, and Pseudomonas aeruginosa. MICs can be determined by the conditions disclosed in Table 4, as well as in Jarolmen, H. et al., “Activity of Minocycline Against R-Factor Carrying Enterobacteriaceae,” Infectious Immunity, Vol. 1, No. 4, pp. 321-326, 1970, the disclosure of which is incorporated herein by reference.
# [2] = system: Staphylococcus aureus Smith; test: MIC by serial twofold broth dilution, Staph; type: cell-based; design: unit not given here; settings: Mueller Hinton broth
# Source text: as §1
# [3] = system: Escherichia coli, ATCC #26; test: MIC by serial twofold broth dilution, E. coli; type: cell-based; design: unit not given here; settings: Mueller Hinton broth
# Source text: as §1
# [4] = human, in vivo; cited from earlier work
Substance,Pseudo MIC [1],Staph MIC [2],E. coli MIC [3],"neurotoxicity, overall incidence [4]"
n-Octylcarbamyl-colistin decapeptide [Compound 51],0.6,20,1.25,
N-(n-Decanoyl)phenylalanyl-colistin decapeptide [Compound 52],2.5,2.5,1.25,
Colistin [reference compound],0.6,>20,0.6,7.3%
P-Toluenesulfonyl-Colistin decapeptide [Compound 53],0.6,>20,1.25,
Polymyxin B1 [reference compound],0.6,10,0.6,
Cyclohexylcarbamyl-[Ile^7]-Polymyxin Decapeptide [Compound 48],0.6,,0.6,
[Ile^7]-polymyxin B1 [reference compound],1.25,20,0.6,
Polymyxin B [reference compound],0.6,>10,0.6,
